Measurements as given in ChEMBL document CHEMBL2169878 (J Med Chem, 2012).
Activity calls are given as the source filed them. No cut-off for these calls is given here.

What was measured:
[1] = system: Plasmodium falciparum; assay: Antiplasmodial activity against chloroquine-sensitive Plasmodium falciparum NF54 infected in human erythrocytes assessed as inhibition of [3H]hypoxanthine incorporation incubated for 48 hrs prior to [3H]hypoxanthine addition measured after 48 hrs by liquid scintillation counting; type: functional, organism-based
[2] = system: Plasmodium falciparum; assay: Antiplasmodial activity against chloroquine-sensitive Plasmodium falciparum D10 infected in human RBC after 72 hrs by parasite lactate dehydrogenase assay; type: functional, organism-based; conditions: D10, 72 h
[3] = system: Plasmodium falciparum; assay: Resistance ratio of IC50 for chloroquine-resistant Plasmodium falciparum K1 to IC50 for chloroquine-sensitive Plasmodium falciparum NF54; type: functional
[4] = system: Plasmodium falciparum; assay: Antiplasmodial activity against chloroquine-resistant Plasmodium falciparum W2 infected in human RBC after 72 hrs by parasite lactate dehydrogenase assay; type: functional, organism-based; conditions: W2, 72 h
[5] = system: Plasmodium falciparum; assay: Antiplasmodial activity against chloroquine-resistant Plasmodium falciparum K1 infected in human erythrocytes assessed as inhibition of [3H]hypoxanthine incorporation incubated for 48 hrs prior to [3H]hypoxanthine addition measured after 48 hrs by liquid scintillation counting; type: functional, organism-based
[6] = system: Plasmodium falciparum; assay: Resistance ratio of IC50 for chloroquine-resistant Plasmodium falciparum W2 to IC50 for chloroquine-sensitive Plasmodium falciparum D10; type: functional
[7] = target: T1, Chloroquine resistance transporter (Plasmodium falciparum) (UniProt Q9N623); assay: Inhibition of chloroquine-resistant Plasmodium falciparum Dd2 CRT expressed in Xenopus laevis oocyte assessed as inhibition of [3H]chloroquine uptake at 100 uM measured from 1 to 2 hrs
T1 sequence (whole entry): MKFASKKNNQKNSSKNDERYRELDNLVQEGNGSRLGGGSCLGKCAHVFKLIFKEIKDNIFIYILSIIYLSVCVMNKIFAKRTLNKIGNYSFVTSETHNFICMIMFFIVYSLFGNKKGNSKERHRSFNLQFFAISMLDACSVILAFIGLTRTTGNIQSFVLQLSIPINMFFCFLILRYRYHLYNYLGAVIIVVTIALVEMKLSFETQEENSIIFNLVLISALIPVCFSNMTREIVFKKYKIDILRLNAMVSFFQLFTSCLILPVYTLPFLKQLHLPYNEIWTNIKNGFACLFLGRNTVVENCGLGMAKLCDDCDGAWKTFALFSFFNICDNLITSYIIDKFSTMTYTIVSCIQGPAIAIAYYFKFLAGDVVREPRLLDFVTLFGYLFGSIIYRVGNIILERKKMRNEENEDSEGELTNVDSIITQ

[8] = system: Salmonella typhimurium; assay: Mutagenicity against Salmonella typhimurium TA98 assessed as revertants at 1.5 uM incubated for 90 mins followed by drug washout measured after 2 days relative to positive control; type: toxicity, organism-based; conditions: salmonella enterica subsp. enterica serovar typhimurium, 1.5 h
[9] = system: Salmonella typhimurium; assay: Mutagenicity against Salmonella typhimurium TA98 assessed as revertants at 12 uM incubated for 90 mins followed by drug washout measured after 2 days relative to positive control; type: toxicity, organism-based; conditions: salmonella enterica subsp. enterica serovar typhimurium
[10] = system: Salmonella typhimurium; assay: Mutagenicity against Salmonella typhimurium TA98 assessed as revertants at 24 uM incubated for 90 mins followed by drug washout measured after 2 days relative to positive control; type: toxicity, organism-based; conditions: salmonella enterica subsp. enterica serovar typhimurium, 1.5 h
[11] = system: Salmonella typhimurium; assay: Mutagenicity against Salmonella typhimurium TA100 assessed as revertants at 1.5 uM incubated for 90 mins followed by drug washout measured after 2 days relative to positive control; type: toxicity, organism-based; conditions: salmonella enterica subsp. enterica serovar typhimurium, 1.5 h
[12] = system: Salmonella typhimurium; assay: Mutagenicity against Salmonella typhimurium TA100 assessed as revertants at 6 uM incubated for 90 mins followed by drug washout measured after 2 days relative to positive control; type: toxicity, organism-based; conditions: salmonella enterica subsp. enterica serovar typhimurium, 1.5 h
[13] = system: Salmonella typhimurium; assay: Mutagenicity against Salmonella typhimurium TA98 assessed as revertants at 48 uM incubated for 90 mins followed by drug washout measured after 2 days relative to positive control; type: toxicity, organism-based; conditions: salmonella enterica subsp. enterica serovar typhimurium, 1.5 h
[14] = Cytotoxicity against human HepG2 cells after 24 hrs by neutral red dye uptake assay; type: cell-based; conditions: read-out: TC50
[15] = system: Salmonella typhimurium; assay: Mutagenicity against Salmonella typhimurium TA100 assessed as revertants at 24 uM incubated for 90 mins followed by drug washout measured after 2 days relative to positive control; type: toxicity, organism-based; conditions: salmonella enterica subsp. enterica serovar typhimurium
[16] = system: Salmonella typhimurium; assay: Mutagenicity against Salmonella typhimurium TA98 assessed as revertants at 3 uM incubated for 90 mins followed by drug washout measured after 2 days relative to positive control; type: toxicity, organism-based; conditions: salmonella enterica subsp. enterica serovar typhimurium, 1.5 h
[17] = system: Salmonella typhimurium; assay: Mutagenicity against Salmonella typhimurium TA100 assessed as revertants at 48 uM incubated for 90 mins followed by drug washout measured after 2 days relative to positive control; type: toxicity, organism-based; conditions: salmonella enterica subsp. enterica serovar typhimurium
[18] = system: Salmonella typhimurium; assay: Mutagenicity against Salmonella typhimurium TA100 assessed as revertants at 12 uM incubated for 90 mins followed by drug washout measured after 2 days relative to positive control; type: toxicity, organism-based; conditions: salmonella enterica subsp. enterica serovar typhimurium
[19] = Cytotoxicity against mouse NIH3T3 cells after 24 hrs by neutral red dye uptake assay; type: cell-based; conditions: read-out: TC50
[20] = system: Salmonella typhimurium; assay: Mutagenicity against Salmonella typhimurium TA98 assessed as revertants at 6 uM incubated for 90 mins followed by drug washout measured after 2 days relative to positive control; type: toxicity, organism-based; conditions: salmonella enterica subsp. enterica serovar typhimurium, 1.5 h
[21] = system: Salmonella typhimurium; assay: Mutagenicity against Salmonella typhimurium TA100 assessed as revertants at 3 uM incubated for 90 mins followed by drug washout measured after 2 days relative to positive control; type: toxicity, organism-based; conditions: salmonella enterica subsp. enterica serovar typhimurium, 1.5 h
[22] = system: Plasmodium berghei; assay: Antimalarial activity against Plasmodium berghei ANKA expressing GFP infected in mouse assessed as mean survival days at 30 mg/kg, po administered 24 hrs post-infection (reference value: 6 to 7 days); type: functional
[23] = system: Salmonella typhimurium; assay: Mutagenicity against Salmonella typhimurium TA100 assessed as revertants at 16 uM incubated for 90 mins followed by drug washout measured after 2 days relative to positive control; type: toxicity, organism-based; conditions: salmonella enterica subsp. enterica serovar typhimurium
[24] = system: Salmonella typhimurium; assay: Mutagenicity against Salmonella typhimurium TA100 assessed as revertants at 40 uM incubated for 90 mins followed by drug washout measured after 2 days relative to positive control; type: toxicity, organism-based; conditions: salmonella enterica subsp. enterica serovar typhimurium
[25] = system: Plasmodium berghei; assay: Antimalarial activity against Plasmodium berghei ANKA expressing GFP infected in mouse assessed as mean survival days at 100 mg/kg, po administered 24 hrs post-infection (reference value: 6 to 7 days); type: functional
[26] = system: Plasmodium berghei; assay: Antimalarial activity against Plasmodium berghei ANKA expressing GFP infected in mouse assessed as reduction in parasitemia at 30 mg/kg, po administered 24 hrs post-infection measured 48 hrs post-dosing by flow cytometric analysis; type: functional; design: scale not given: the % may be the effect or the level left
[27] = system: Salmonella typhimurium; assay: Mutagenicity against Salmonella typhimurium TA100 assessed as revertants at 4 uM incubated for 90 mins followed by drug washout measured after 2 days relative to positive control; type: toxicity, organism-based; conditions: salmonella enterica subsp. enterica serovar typhimurium, 1.5 h
[28] = system: Plasmodium berghei; assay: Antimalarial activity against Plasmodium berghei ANKA expressing GFP infected in mouse assessed as reduction in parasitemia at 100 mg/kg, po administered 24 hrs post-infection measured 48 hrs post-dosing by flow cytometric analysis; type: functional; design: scale not given: the % may be the effect or the level left
[29] = system: Plasmodium berghei; assay: Antimalarial activity against Plasmodium berghei ANKA expressing GFP infected in mouse assessed as cure from infection at 30 mg/kg, po administered 24 hrs post-infection measured on day 30; type: functional, organism-based; design: dose 30 mg/kg
[30] = system: Salmonella typhimurium; assay: Mutagenicity against Salmonella typhimurium TA100 assessed as revertants at 2 uM incubated for 90 mins followed by drug washout measured after 2 days relative to positive control; type: toxicity, organism-based; conditions: salmonella enterica subsp. enterica serovar typhimurium
[31] = system: Salmonella typhimurium; assay: Mutagenicity against Salmonella typhimurium TA98 assessed as revertants at 4 uM incubated for 90 mins followed by drug washout measured after 2 days relative to positive control; type: toxicity, organism-based; conditions: salmonella enterica subsp. enterica serovar typhimurium
[32] = system: Salmonella typhimurium; assay: Mutagenicity against Salmonella typhimurium TA98 assessed as revertants at 16 uM incubated for 90 mins followed by drug washout measured after 2 days relative to positive control; type: toxicity, organism-based; conditions: salmonella enterica subsp. enterica serovar typhimurium
[33] = system: Salmonella typhimurium; assay: Mutagenicity against Salmonella typhimurium TA98 assessed as revertants at 40 uM incubated for 90 mins followed by drug washout measured after 2 days relative to positive control; type: toxicity, organism-based; conditions: salmonella enterica subsp. enterica serovar typhimurium
[34] = system: Plasmodium berghei; assay: Antimalarial activity against Plasmodium berghei ANKA expressing GFP infected in mouse assessed as cure from infection at 100 mg/kg, po administered 24 hrs post-infection measured on day 30; type: functional, organism-based; design: dose 100 mg/kg
[35] = system: Salmonella typhimurium; assay: Mutagenicity against Salmonella typhimurium TA100 assessed as revertants at 80 uM incubated for 90 mins followed by drug washout measured after 2 days relative to positive control; type: toxicity, organism-based; conditions: salmonella enterica subsp. enterica serovar typhimurium
[36] = system: Salmonella typhimurium; assay: Mutagenicity against Salmonella typhimurium TA98 assessed as revertants at 80 uM incubated for 90 mins followed by drug washout measured after 2 days relative to positive control; type: toxicity, organism-based; conditions: salmonella enterica subsp. enterica serovar typhimurium, 1.5 h
[37] = system: Salmonella typhimurium; assay: Mutagenicity against Salmonella typhimurium TA98 assessed as revertants at 2 uM incubated for 90 mins followed by drug washout measured after 2 days relative to positive control; type: toxicity, organism-based; conditions: salmonella enterica subsp. enterica serovar typhimurium, 1.5 h

COc1ccc2nccc(NC(c3ccc(Cl)cc3)c3ccc(CN4CCNCC4)cc3)c2c1 (racemic)
IC50 [1]: 21 nM
IC50 [2]: 67 nM
Ratio IC50 [3]: 2.8
IC50 [4]: 163 nM
IC50 [5]: 58 nM
Ratio IC50 [6]: 2.4

Clc1ccc(C(c2ccc(Cl)cc2)(c2ccc(CN3CCCC3)cc2)N2CCN(c3ccnc4cc(Cl)ccc34)CC2)cc1
inhibition [7]: 42%
IC50 [1]: 91 nM
IC50 [2]: 277 nM
IC50 [4]: 582 nM
IC50 [5]: 92 nM

Fc1cc(C(Nc2ccnc3cc(Cl)ccc23)c2cccc(Cl)c2)ccc1CN1CCCC1 (racemic)
inhibition [7]: 70%
IC50 [2]: 9 nM
IC50 [4]: 25 nM

Clc1ccc(C(c2ccc(CN3CCCC3)cc2)N2CCN(c3ccnc4cc(Cl)ccc34)CC2)cc1 (racemic)
inhibition [7]: 58%
IC50 [1]: 88 nM
IC50 [2]: 631 nM
IC50 [4]: 735 nM
IC50 [5]: 156 nM

COc1ccc2nccc(NC(c3cccc(Cl)c3)c3ccc(CN4CCOCC4)c(Cl)c3)c2c1 (racemic)
IC50 [1]: 81 nM
IC50 [2]: 198 nM
IC50 [4]: 229 nM
IC50 [5]: 114 nM

COc1ccc2nccc(NC(c3cccc(Cl)c3)c3ccc(CN4CCCC4)c(Cl)c3)c2c1 (racemic)
Activity [8]: 3%
IC50 [1]: 27 nM
Activity [9]: 3%
Activity [10]: 3%
IC50 [2]: 56 nM
Activity [11]: 3%
Activity [12]: 4%
Activity [13]: 3%
CC50 at 24 h [14]: 12000 nM
Activity [15]: 5%
Activity [16]: 0%
Activity [17]: 10%
Activity [18]: 4%
IC50 [4]: 90 nM
CC50 at 24 h [19]: 24000 nM
Activity [20]: 0%
IC50 [5]: 34 nM
Activity [21]: 4%

FC(F)(F)c1ccc2c(NC(c3cccc(Cl)c3)c3ccc(CN4CCCC4)c(Cl)c3)ccnc2c1 (racemic)
IC50 [1]: 34 nM
IC50 [2]: 74 nM
IC50 [4]: 111 nM
IC50 [5]: 46 nM

COc1ccc2nccc(NC(c3ccc(Cl)cc3)c3ccc(CN4CCCC4)c(F)c3)c2c1 (racemic)
IC50 [1]: 25 nM
IC50 [2]: 58 nM
IC50 [4]: 69 nM
IC50 [5]: 33 nM

Clc1ccc(C(Nc2ccnc3cc(Cl)ccc23)c2ccc(CN3CCCC3)c(Cl)c2)cc1 (racemic)
MSD [22]: 7.7 days
Activity [23]: 1%
inhibition [7]: 70%
Activity [10]: 10%
IC50 [2]: 8.4 nM
Activity [24]: 8%
MSD [25]: 14 days
CC50 at 24 h [14]: 4000 nM
Activity [15]: 4%
Activity [26]: 99.4%
Activity [27]: 3%
Activity [28]: 99.5%
Activity [29]: inactive
Activity [30]: 4%
Activity [31]: 0%
Activity [32]: 3%
Activity [33]: 10%
IC50 [4]: 28 nM
Activity [34]: inactive
Activity [35]: 1%
CC50 at 24 h [19]: 16000 nM
Activity [36]: 0%
Activity [37]: 17%

Clc1cccc(C(Nc2ccnc3cc(Cl)ccc23)c2ccc(CN3CCCC3)c(Cl)c2)c1 (racemic)
IC50 [1]: 13 nM
IC50 [2]: 57 nM
IC50 [4]: 50 nM
IC50 [5]: 19 nM

CN1CCN(Cc2ccc(C(Nc3ccnc4cc(Cl)ccc34)c3ccc(Cl)cc3)cc2)CC1 (racemic)
inhibition [7]: Active
IC50 [2]: 21 nM
IC50 [4]: 42 nM
Ratio IC50 [6]: 2
